Here are results for 50 compounds from BindingDB's records for patent US11547697 (Millennium Pharmaceuticals, 2023).

Test [1] concerns the target Phosphatidylinositol 4,5-bisphosphate 3-kinase catalytic subunit beta isoform (Homo sapiens, UniProt P42338). Put plainly: Inhibition Assay of PI3K.
The target of test [2] is T1, Phosphatidylinositol 4,5-bisphosphate 3-kinase catalytic subunit delta isoform (Homo sapiens, UniProt O00329).
T1 sequence (O00329 whole entry): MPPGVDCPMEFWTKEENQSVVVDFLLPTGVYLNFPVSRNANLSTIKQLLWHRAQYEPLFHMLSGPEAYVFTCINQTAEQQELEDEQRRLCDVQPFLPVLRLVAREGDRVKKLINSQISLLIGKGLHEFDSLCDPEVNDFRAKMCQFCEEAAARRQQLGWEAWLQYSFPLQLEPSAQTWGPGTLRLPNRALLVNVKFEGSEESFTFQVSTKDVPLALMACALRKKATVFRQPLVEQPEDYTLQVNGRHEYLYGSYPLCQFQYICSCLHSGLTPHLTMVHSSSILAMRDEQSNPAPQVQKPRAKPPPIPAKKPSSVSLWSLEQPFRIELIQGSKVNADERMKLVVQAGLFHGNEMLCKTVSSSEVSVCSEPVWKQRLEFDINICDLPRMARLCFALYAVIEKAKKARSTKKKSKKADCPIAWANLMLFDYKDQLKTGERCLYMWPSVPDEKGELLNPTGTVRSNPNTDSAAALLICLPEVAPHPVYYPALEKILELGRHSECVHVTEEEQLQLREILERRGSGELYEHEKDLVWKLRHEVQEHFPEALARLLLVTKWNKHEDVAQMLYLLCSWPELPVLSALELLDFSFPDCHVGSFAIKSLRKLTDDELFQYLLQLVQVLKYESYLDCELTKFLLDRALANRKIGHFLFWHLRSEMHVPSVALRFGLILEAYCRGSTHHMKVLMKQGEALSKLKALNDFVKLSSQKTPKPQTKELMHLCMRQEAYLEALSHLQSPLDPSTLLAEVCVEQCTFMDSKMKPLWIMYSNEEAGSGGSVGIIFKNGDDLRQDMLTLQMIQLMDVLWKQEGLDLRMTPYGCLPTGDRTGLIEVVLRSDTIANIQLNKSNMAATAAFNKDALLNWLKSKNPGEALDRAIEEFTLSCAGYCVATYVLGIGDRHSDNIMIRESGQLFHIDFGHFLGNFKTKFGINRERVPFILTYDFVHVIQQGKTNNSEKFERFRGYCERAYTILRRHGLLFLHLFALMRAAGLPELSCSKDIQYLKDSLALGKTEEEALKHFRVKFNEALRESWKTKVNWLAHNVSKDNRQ
Put plainly: Inhibition Assay of PI3K.

A value given as a limit tells only on which side of the number the result lay.

Chain of Phosphatidylinositol 4,5-bisphosphate 3-kinase catalytic subunit beta isoform (P42338 whole entry, canonical isoform): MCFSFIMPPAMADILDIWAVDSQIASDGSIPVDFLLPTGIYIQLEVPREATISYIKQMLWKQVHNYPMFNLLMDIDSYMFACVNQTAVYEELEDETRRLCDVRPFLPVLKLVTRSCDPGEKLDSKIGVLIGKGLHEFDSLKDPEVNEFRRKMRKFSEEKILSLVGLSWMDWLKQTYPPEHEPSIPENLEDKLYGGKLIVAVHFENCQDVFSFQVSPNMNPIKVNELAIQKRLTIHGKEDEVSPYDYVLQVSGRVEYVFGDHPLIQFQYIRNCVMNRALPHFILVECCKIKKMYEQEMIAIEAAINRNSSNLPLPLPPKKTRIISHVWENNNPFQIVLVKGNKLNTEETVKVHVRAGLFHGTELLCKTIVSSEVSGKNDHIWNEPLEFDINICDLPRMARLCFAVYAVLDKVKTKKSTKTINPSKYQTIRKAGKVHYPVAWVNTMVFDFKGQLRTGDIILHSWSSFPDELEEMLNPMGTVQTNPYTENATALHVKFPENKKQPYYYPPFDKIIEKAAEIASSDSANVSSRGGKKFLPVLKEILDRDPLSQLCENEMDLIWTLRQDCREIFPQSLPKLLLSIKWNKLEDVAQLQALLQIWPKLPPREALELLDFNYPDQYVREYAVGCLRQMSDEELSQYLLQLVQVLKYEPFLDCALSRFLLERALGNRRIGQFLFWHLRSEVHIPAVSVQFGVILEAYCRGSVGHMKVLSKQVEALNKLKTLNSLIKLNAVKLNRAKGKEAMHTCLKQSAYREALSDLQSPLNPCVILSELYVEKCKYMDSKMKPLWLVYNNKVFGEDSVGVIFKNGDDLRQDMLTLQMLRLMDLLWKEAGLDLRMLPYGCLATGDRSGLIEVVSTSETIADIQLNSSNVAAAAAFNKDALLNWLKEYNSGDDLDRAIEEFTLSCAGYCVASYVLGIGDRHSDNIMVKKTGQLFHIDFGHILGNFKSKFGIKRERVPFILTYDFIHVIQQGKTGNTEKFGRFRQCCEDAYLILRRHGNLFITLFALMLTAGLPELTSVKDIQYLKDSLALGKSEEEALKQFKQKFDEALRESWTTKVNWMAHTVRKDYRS

Take `CC(=O)Nc1nc2ccc(-c3ccc4nccc(-c5ccncc5)c4c3)cc2s1` [US11547697, Compound 2]: the 50% inhibitory concentration (IC50) in test [1] and in test [2] was greater than 10 µM throughout.
As to `Nc1ccc2cc(-c3ccc4nccc(-c5ccncc5)c4c3)ccc2n1` [US11547697, Compound 5], the concentration for half-maximal inhibition (IC50) (commonly the point on the concentration scale where inhibition reaches its midpoint) in test [1] was greater than 10 µM.
Same read-out and setting: to `Nc1ncnc2ccc(-c3ccc4nccc(-c5ccncc5)c4c3)cc12` [US11547697, Compound 8] belongs greater than 10 µM.
On to `Nc1nc2cc(-c3cc4nccc(-c5ccncc5)c4s3)ccc2o1` [US11547697, Compound 14], for which the IC50 in test [1] and in test [2] was greater than 10 µM each time.
On to `Nc1noc2ccc(-c3ccc4nccc(-c5ccncc5)c4c3)cc12` [US11547697, Compound 18], for which the IC50 in test [1] and in test [2] was greater than 10 µM throughout.
On to `Nc1nc2cc(-c3c[nH]c4nccc(-c5ccncc5)c34)ccc2o1` [US11547697, Compound 25], for which the IC50 in test [1] and in test [2] was greater than 10 µM throughout.
For `Nc1nc2cc(-c3ccc4ncc(-c5cccnc5)nc4c3)ccc2o1` [US11547697, Compound 76], the IC50 in test [1] and in test [2] was greater than 10 µM each time.
Take `N#Cc1cnc2ccc(-c3ccc4oc(N)nc4c3)cc2c1` [US11547697, Compound 93]: the IC50 in test [1] and in test [2] was greater than 10 µM each time.
Regarding `Nc1nc2cc(-c3ccc4ncc(N5CCS(=O)(=O)CC5)nc4c3)ccc2o1` [US11547697, Compound 98], the IC50 in test [1] and in test [2] was greater than 10 µM each time.
As to `CN1CCN(C(=O)c2cnc3ccc(-c4ccc5oc(N)nc5c4)nn23)CC1` [US11547697, Compound 104], the IC50 in test [1] and in test [2] was greater than 10 µM in each case.
Regarding `C[C@@H]1CN(C(=O)c2cnc3ccc(-c4ccc5oc(N)nc5c4)cn23)C[C@H](C)O1` [US11547697, Compound 106], the IC50 in test [1] and in test [2] was greater than 10 µM in each case.
Regarding `Nc1nc2cc(-c3ccc4ncc(C(=O)N5CCS(=O)(=O)CC5)n4c3)ccc2o1` [US11547697, Compound 107], the IC50 in test [1] and in test [2] was greater than 10 µM in each case.
In test [1], `CS(=O)(=O)N1CCN(C(=O)c2cnc3ccc(-c4ccc5oc(N)nc5c4)cn23)CC1` [US11547697, Compound 112] showed an IC50 greater than 10 µM.
Take `CC(=O)N1CCN(C(=O)c2cnc3ccc(-c4ccc5oc(N)nc5c4)cn23)CC1` [US11547697, Compound 113]: the IC50 in test [1] and in test [2] was greater than 10 µM each time.
For the compound `Nc1nc2ccc(-c3ccc4ncc(N5CCOCC5)nc4c3)cc2s1` [US11547697, Compound 114], the IC50 in test [1] and in test [2] was greater than 10 µM each time.
The compound `Nc1nc2ccc(-c3ccc4ncc(C(=O)N5CCOCC5)n4c3)cc2s1` [US11547697, Compound 125] gave an IC50 in test [1] greater than 10 µM.
Turning to `C[C@@H]1CN(c2cnc3ccc(-c4ccc5oc(N)nc5c4)cc3n2)C[C@H](C)O1` [US11547697, Compound 132], the IC50 in test [1] and in test [2] was greater than 10 µM in each case.
With `CCN1CCN(C(=O)c2cnc3ccc(-c4ccc5oc(N)nc5c4)cn23)CC1` [US11547697, Compound 141], the IC50 in test [1] and in test [2] was greater than 10 µM throughout.
`Nc1nc2cc(-c3ccc4ncc(C(=O)N5CCN(CCO)CC5)n4c3)ccc2o1` [US11547697, Compound 148]: the IC50 in test [1] and in test [2] was greater than 10 µM in each case.
Regarding `Nc1nc2cc(-c3ccc4ncc(C(=O)N5CCC(O)CC5)n4c3)ccc2o1` [US11547697, Compound 162], the IC50 in test [1] and in test [2] was greater than 10 µM throughout.
Take `Nc1nc2cc(-c3ccc4ncc(N5CCCCC5)nc4c3)ccc2o1` [US11547697, Compound 175]: the IC50 in test [1] and in test [2] was greater than 10 µM in each case.
Take `Cc1cn(-c2cnc3ccc(-c4ccc5oc(N)nc5c4)cc3n2)cn1` [US11547697, Compound 177]: the IC50 in test [1] and in test [2] was greater than 10 µM each time.
With `Nc1nc2cc(-c3ccc4ncc(C(=O)Nc5cccnc5)n4c3)ccc2o1` [US11547697, Compound 190], the 50% inhibitory concentration (IC50) in test [1] was greater than 10 µM.
Regarding `Cc1ccc(-c2cnc3ccc(-c4ccc5oc(N)nc5c4)cc3n2)cn1` [US11547697, Compound 194], the IC50 in test [1] and in test [2] was greater than 10 µM in each case.
Turning to `CC(C)n1cnc2ccc(-c3ccc4oc(N)nc4c3)cc2c1=O` [US11547697, Compound 206], the IC50 in test [1] and in test [2] was greater than 10 µM throughout.
`Cc1ccn(C2CCN(c3cnc4ccc(-c5ccc6oc(N)nc6c5)cc4n3)CC2)n1` [US11547697, Compound 223]: the half-inhibitory concentration (IC50) in test [1] and in test [2] was greater than 10 µM throughout.
As for `Nc1nc2cc(-c3ccc4ncc(N5CCN(C(=O)C6(N)CC6)CC5)nc4c3)ccc2o1` [US11547697, Compound 226], the IC50 in test [1] is greater than 10 µM.
In turn, `CC(=O)Nc1ncc(-c2ccc3oc(N)nc3c2)s1` [US11547697, Compound 235] registered an IC50 in test [1] greater than 10 µM.
For the compound `Nc1nc2cc(-c3ccc4ncn(C5CC5)c(=O)c4c3)ccc2o1` [US11547697, Compound 254], the IC50 in test [1] and in test [2] was greater than 10 µM each time.
For `NC(=O)[C@@H]1CCCN1C(=O)c1cnc2ccc(-c3ccc4oc(N)nc4c3)cn12` [US11547697, Compound 259], the IC50 in test [1] and in test [2] was greater than 10 µM throughout.
Regarding `NC(=O)[C@H]1CCCN1C(=O)c1cnc2ccc(-c3ccc4oc(N)nc4c3)cn12` [US11547697, Compound 260], the half-maximal inhibitory concentration (IC50) in test [1] and in test [2] was greater than 10 µM each time.
`Nc1nc2cc(-c3ccc4ncc(N5CC(N6CCOCC6)C5)nc4c3)ccc2o1` [US11547697, Compound 273]: the IC50 in test [1] and in test [2] was greater than 10 µM each time.
On to `NC(=O)[C@@H]1CCCN1C(=O)C1CN(c2cnc3ccc(-c4ccc5oc(N)nc5c4)cc3n2)C1` [US11547697, Compound 283], for which the IC50 in test [1] and in test [2] was greater than 10 µM each time.
`Cc1ccc(NC(=O)c2cnc3ccc(-c4ccc5oc(N)nc5c4)cn23)cn1` [US11547697, Compound 294] had an IC50 in test [1] greater than 10 µM.
On the same count and under the same terms, to `Nc1nc2cc(-c3ccc4ncc(N5CC(N6CCC(O)CC6)C5)nc4c3)ccc2o1` [US11547697, Compound 341] belongs greater than 10 µM; to `COc1ncc(-c2ccc3ncc(C(=O)N4CCOCC4)n3c2)cc1NS(=O)(=O)c1ccccc1` [US11547697, Compound 420], greater than 10 µM; to `O=C(c1cnc2ccc(-c3cncc(NS(=O)(=O)c4ccccc4)c3)cn12)N1CCOCC1` [US11547697, Compound 424], greater than 10 µM.
The same measure, in the same setting: the result for `O=C(c1cnc2ccc(-c3cncc(NS(=O)(=O)c4ccc(F)cc4F)c3)cn12)N1CCOCC1` [US11547697, Compound 425] reads greater than 10 µM; that for `O=C(c1cnc2ccc(-c3cccc(NS(=O)(=O)c4ccc(F)cc4F)c3)cn12)N1CCOCC1` [US11547697, Compound 454], greater than 10 µM; that for `Nc1nc2cc(-c3ccc4ncc(C(=O)N5CC[C@@H](F)C5)n4c3)ccc2o1` [US11547697, Compound 475], greater than 10 µM.
In test [1], `Nc1nc2cc(-c3ccc4ncc(C(=O)N5CC[C@@H](n6cccn6)C5)n4c3)ccc2o1` [US11547697, Compound 477] had an IC50 greater than 10 µM.
The same measure, in the same setting: to `Nc1nc2cc(-c3ccc4ncc(C(=O)N5CC(n6cccn6)C5)n4c3)ccc2o1` [US11547697, Compound 479] belongs greater than 10 µM; to `Nc1nc2cc(-c3ccc4ncc(C(=O)N5C6CCC5COC6)n4c3)ccc2o1` [US11547697, Compound 480], greater than 10 µM.
On the same count and under the same terms, the result for `C[C@H]1CCCN1C(=O)c1cnc2ccc(-c3ccc4oc(N)nc4c3)cn12` [US11547697, Compound 482] reads greater than 10 µM.
`Nc1nc2cc(-c3ccc4ncc(C(=O)N5CC6(C5)OCCO6)n4c3)ccc2o1` [US11547697, Compound 494] gave an IC50 in test [2] greater than 10 µM.
`C[C@@H]1COCCN1C(=O)c1cnc2ccc(-c3ccc4oc(N)nc4c3)cn12` [US11547697, Compound 495]: in test [2], the 50% inhibitory concentration (IC50) was greater than 10 µM.
The same measure, in the same setting: the result for `Nc1nc2c(-c3ccc4ncc(C(=O)N5CCOCC5)n4c3)cccc2o1` [US11547697, Compound 496] reads greater than 10 µM.
In test [1], `Nc1nc2cc(-c3ccc4ncc(C(=O)N5CC(N6CCC(F)(F)C6)C5)n4c3)ccc2o1` [US11547697, Compound 502] came in with an IC50 greater than 10 µM.
In turn, `Nc1nc2cc(-c3ccc4ncc(C(=O)N5CC6CCC(C5)O6)n4c3)ccc2o1` [US11547697, Compound 504] gave a 50% inhibitory concentration (IC50) in test [2] greater than 10 µM.
In turn, `COc1ncc(-c2ccc3ncc(C(=O)N4CCOCC4)n3c2)c2cn[nH]c12` [US11547697, Compound 517] showed an IC50 in test [1] greater than 10 µM.
